For assay [1], the system named is mouse vas deferens. In words: electrically stimulated mouse vas deferens (MVD) ED50. Particulars: ED50, inhibition of electrically induced contractions. The class given is cell-based.
For assay [2], the target named is T1, human delta receptor (Homo sapiens, UniProt P41143).
T1 construct: purchased Perkin Elmer, Boston, Mass; 6110549; host or cells: HEK-293 cells
Kind of assay: radioligand binding, human delta receptor, HEK-293 cell membranes. Particulars: cell not marked (rat), species not given, read-out: δ.

In assay [3] the target is T2, human mu opioid receptor (Homo sapiens, UniProt P35372).
T2 construct: purchased Perkin Elmer, Boston, Mass; 6110535; host or cells: CHO cells
Kind of assay: radioligand binding, human mu opioid receptor, CHO cell membranes. As to conditions: species not given, read-out: μ.

pEC50, pKi: −log10 of the molar value.

T1 sequence (P41143 whole entry): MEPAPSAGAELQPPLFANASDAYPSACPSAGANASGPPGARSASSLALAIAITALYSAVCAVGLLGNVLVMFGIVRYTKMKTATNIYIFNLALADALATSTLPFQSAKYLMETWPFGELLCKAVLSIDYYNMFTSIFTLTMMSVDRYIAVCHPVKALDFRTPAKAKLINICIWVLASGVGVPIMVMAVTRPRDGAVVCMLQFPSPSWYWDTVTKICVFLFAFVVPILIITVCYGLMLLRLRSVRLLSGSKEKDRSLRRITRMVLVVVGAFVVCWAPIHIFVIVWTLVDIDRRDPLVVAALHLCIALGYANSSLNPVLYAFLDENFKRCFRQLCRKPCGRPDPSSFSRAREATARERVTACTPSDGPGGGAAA
T2 sequence (P35372 whole entry): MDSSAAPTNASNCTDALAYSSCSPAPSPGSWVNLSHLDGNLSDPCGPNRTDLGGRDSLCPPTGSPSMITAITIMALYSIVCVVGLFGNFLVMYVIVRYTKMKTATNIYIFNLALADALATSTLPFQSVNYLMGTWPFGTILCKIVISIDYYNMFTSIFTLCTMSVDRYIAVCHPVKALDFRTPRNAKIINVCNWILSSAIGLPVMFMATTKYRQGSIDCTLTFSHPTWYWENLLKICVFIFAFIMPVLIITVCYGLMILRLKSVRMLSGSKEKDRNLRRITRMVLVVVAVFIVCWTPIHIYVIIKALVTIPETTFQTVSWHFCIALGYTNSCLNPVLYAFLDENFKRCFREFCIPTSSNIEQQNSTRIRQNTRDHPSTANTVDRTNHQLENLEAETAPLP

The pEC50 is −log10 of the EC50, conventionally taken in molar units. Higher therefore signals a low EC50. In the case of `C=CCN1C[C@H](C)N([C@@H](c2cccc(O)c2)c2cccc(C(=O)N3CCN(CCCCCCC(=O)OCC)CC3)c2)C[C@H]1C` [Example 108, 7-(4-{3-[(R)-((2S,5R)-4-Allyl-2,5-dimethyl-piperazin-1-yl)-(3-hydroxy-phenyl)-methyl]-benzoyl}-piperazin-1-yl)-heptanoic acid ethyl ester], the pEC50 in assay [1] is 7.50.

Turning to `C=CCN1C[C@H](C)N(C(c2cccc(O)c2)c2cccc(C(=O)N3CCCN(CCCCCCC(=O)O)CC3)c2)C[C@H]1C` (stereo partly shown), the pKi in assay [2] was 8.25; in assay [3], 8.08. In addition, the pEC50 in assay [1] is 7.46.

For the compound `CCOC(=O)CCCCCN1CCCN(C(=O)c2cccc(C(c3cccc(O)c3)N3C[C@@H](C)N(CC4CC4)C[C@@H]3C)c2)CC1` (stereo partly shown), the pKi in assay [2] is 7.63; in assay [3], 8.03. The pEC50 in assay [1] is 5.98.

Take `C[C@@H]1CN(C(c2cccc(O)c2)c2cccc(C(=O)N3CCCN(CC(=O)O)CC3)c2)[C@@H](C)CN1Cc1cccc(F)c1` (stereo partly shown): the pKi in assay [3] is 8.51.

On to `CCOC(=O)CCCN1CCN(C(=O)c2cccc([C@H](c3cccc(O)c3)N3C[C@@H](C)N(Cc4cccc(F)c4)C[C@@H]3C)c2)CC1` [Example 81, 4-(4-{3-[(R)-((2S,5R)-4-(3-Fluorobenzyl)-2,5-dimethyl-piperazin-1-yl)-(3-hydroxy-phenyl)-methyl]-benzoyl}-piperazin-1-yl)-butyric acid ethyl ester], for which the pKi in assay [2] is 7.90; in assay [3], 8.31. Also, the pEC50 in assay [1] is 7.35.

`C[C@@H]1CN(C(c2cccc(O)c2)c2cccc(C(=O)N3CCCN(CCCCCCC(=O)O)CC3)c2)[C@@H](C)CN1Cc1ccccc1` (stereo partly shown): the pKi in assay [2] is 8.31; in assay [3], 8.20. Besides, the pEC50 in assay [1] is 7.98.

Consider `C=CCN1C[C@H](C)N([C@@H](c2cccc(O)c2)c2cccc(C(=O)N3CCN(CCCCCC(=O)OCC)CC3)c2)C[C@H]1C` [Example 93, 6-(4-{3-[(R)-((2S,5R)-4-Allyl-2,5-dimethyl-piperazin-1-yl)-(3-hydroxy-phenyl)-methyl]-benzoyl}-piperazin-1-yl)-hexanoic acid ethyl ester], for which the pKi in assay [2] was 8.27; in assay [3], 7.52. This compound had a negative-log EC50 (pEC50) in assay [1] of 7.23.

As to `C[C@@H]1CN(C(c2cccc(O)c2)c2cccc(C(=O)N3CCCN(CCCC(=O)O)CC3)c2)[C@@H](C)CN1CC1CC1` (stereo partly shown), the pKi is 6.28 in assay [2] and 7.58 in assay [3]. Besides, in assay [1], the pEC50 was 7.22.

With `C=CCN1C[C@H](C)N(C(c2cccc(O)c2)c2cccc(C(=O)N3CCCN(CCCCCCC(=O)OCC)CC3)c2)C[C@H]1C` (stereo partly shown), the pKi in assay [2] is 8.51; in assay [3], 8.41. Besides, the pEC50 in assay [1] is 7.28.

On to `C[C@@H]1CN(C(c2cccc(O)c2)c2cccc(C(=O)N3CCCN(CCCCCC(=O)O)CC3)c2)[C@@H](C)CN1CC1CC1` (stereo partly shown), for which the values for the pKi in assay [2] and in assay [3] were 8.25 and 7.69, respectively. This compound had a pEC50 in assay [1] of 6.96.

As to `CCOC(=O)CN1CCN(C(=O)c2cccc([C@H](c3cccc(O)c3)N3C[C@@H](C)N(CC4CC4)C[C@@H]3C)c2)CC1` [Example 70, (4-{3-[(R)-((2S,5R)-4-Cyclopropylmethyl-2,5-dimethyl-piperazin-1-yl)-(3-hydroxy-phenyl)-methyl]-benzoyl}-piperazin-1-yl)-acetic acid ethyl ester], the pKi in assay [2] is 8.46; in assay [3], 8.06. The pEC50 in assay [1] is 7.26.

On to `CCOC(=O)CCCCCCN1CCCN(C(=O)c2cccc(C(c3cccc(O)c3)N3C[C@@H](C)N(CC4CC4)C[C@@H]3C)c2)CC1` (stereo partly shown), for which the pKi in assay [2] is 7.35; in assay [3], 8.10. In addition, the pEC50 in assay [1] is 7.06.

On to `C=CCN1C[C@H](C)N(C(c2cccc(O)c2)c2cccc(C(=O)N3CCCN(Cc4cccc(C(=O)OC)c4)CC3)c2)C[C@H]1C` (stereo partly shown), for which the pEC50 in assay [1] is 7.71.

On to `CCOC(=O)CCCCN1CCN(C(=O)c2cccc([C@H](c3cccc(O)c3)N3C[C@@H](C)N(Cc4cccc(F)c4)C[C@@H]3C)c2)CC1` [Example 87, 5-(4-{3-[(R)-((2S,5R)-4-(3-Fluorobenzyl)-2,5-dimethyl-piperazin-1-yl)-(3-hydroxy-phenyl)-methyl]-benzoyl}-piperazin-1-yl)-pentanoic acid ethyl ester], for which the pKi in assay [2] is 7.97; in assay [3], 7.67. For the same compound, the pEC50 in assay [1] was 7.44.

Turning to `CCOC(=O)CCCN1CCN(C(=O)c2cccc([C@H](c3cccc(O)c3)N3C[C@@H](C)N(CC4CC4)C[C@@H]3C)c2)CC1` [Example 77, 4-(4-{3-[(R)-((2S,5R)-4-Cyclopropylmethyl-2,5-dimethyl-piperazin-1-yl)-(3-hydroxy-phenyl)-methyl]-benzoyl}-piperazin-1-yl)-butyric acid ethyl ester], the pKi in assay [2] is 6.40; in assay [3], 8.36. This compound gave a pEC50 in assay [1] of 6.96.

In the case of `C[C@@H]1CN(C(c2cccc(O)c2)c2cccc(C(=O)N3CCCN(CCCCC(=O)O)CC3)c2)[C@@H](C)CN1CC1CC1` (stereo partly shown), the pKi in assay [2] was 7.21; in assay [3], 6.25. This compound gave a pEC50 in assay [1] of 7.11.

Turning to `C=CCN1C[C@H](C)N([C@@H](c2cccc(O)c2)c2cccc(C(=O)N3CCN(Cc4cccc5c4ccn5CC(=O)O)CC3)c2)C[C@H]1C` [Example 107, [4-(4-{3-[(R)-((2S,5R)-4-Allyl-2,5-dimethyl-piperazin-1-yl)-(3-hydroxy-phenyl)-methyl]-benzoyl}-piperazin-1-ylmethyl)-indol-1-yl]-acetic acid], the figures for the pKi in assay [2] and in assay [3] were 9.02 and 8.19, respectively. The compound further showed a pEC50 in assay [1] of 8.40.

Turning to `CCOC(=O)CCCCCCN1CCCN(C(=O)c2cccc(C(c3cccc(O)c3)N3C[C@@H](C)N(Cc4ccccc4)C[C@@H]3C)c2)CC1` (stereo partly shown), the results for the pKi in assay [2] and in assay [3] were 8.62 and 8.42, respectively. The compound also had a pEC50 in assay [1] of 7.54.

As for `C[C@@H]1CN(C(c2cccc(O)c2)c2cccc(C(=O)N3CCCN(CCCCCCC(=O)O)CC3)c2)[C@@H](C)CN1Cc1cccc(F)c1` (stereo partly shown), the pKi was 6.85 in assay [2] and 6.65 in assay [3]. Moreover, the pEC50 in assay [1] is 6.96.

In the case of `CCOC(=O)CN1CCN(C(=O)c2cccc([C@H](c3cccc(O)c3)N3C[C@@H](C)N(Cc4cccc(F)c4)C[C@@H]3C)c2)CC1` [Example 66, (4-{3-[(R)-[(2S,5R)-4-(3-Fluoro-benzyl)-2,5-dimethyl-piperazin-1-yl]-(3-hydroxy-phenyl)-methyl]-benzoyl}-piperazin-1-yl)-acetic acid ethyl ester], the pKi in assay [2] is 8.89; in assay [3], 8.30. The pEC50 in assay [1] is 7.66.

Consider `C[C@@H]1CN([C@@H](c2cccc(O)c2)c2cccc(C(=O)N3CCN(Cc4ccc(C(=O)O)cc4)CC3)c2)[C@@H](C)CN1Cc1cccc(O)c1` [Example 104, 4-(4-{3-[(R)-[(2S,5R)-4-(3-Hydroxy-benzyl)-2,5-dimethyl-piperazin-1-yl]-(3-hydroxy-phenyl)-methyl]-benzoyl}-piperazin-1-ylmethyl)-benzoic acid], for which the pKi in assay [2] was 9.00; in assay [3], 7.71. Besides, the pEC50 in assay [1] was 8.69.

`CCOC(=O)CCCCCCN1CCN(C(=O)c2cccc([C@H](c3cccc(O)c3)N3C[C@@H](C)N(Cc4cccc(F)c4)C[C@@H]3C)c2)CC1` [Example 112, 7-(4-{3-[(R)-[(2S,5R)-4-(3-Fluoro-benzyl)-2,5-dimethyl-piperazin-1-yl]-(3-hydroxy-phenyl)-methyl]-benzoyl}-piperazin-1-yl)-heptanoic acid ethyl ester] gave a pEC50 in assay [1] of 6.96. For the same compound, the pKi in assay [3] is 8.23.

In assay [1], `CCOC(=O)CCCCCN1CCN(C(=O)c2cccc([C@H](c3cccc(O)c3)N3C[C@@H](C)N(CC4CC4)C[C@@H]3C)c2)CC1` [Example 100, 6-(4-{3-[(R)-((2S,5R)-4-Cyclopropylmethyl-2,5-dimethyl-piperazin-1-yl)-(3-hydroxy-phenyl)-methyl]-benzoyl}-piperazin-1-yl)-hexanoic acid ethyl ester] showed a pEC50 of 6.77.

Take `C[C@@H]1CN([C@@H](c2cccc(O)c2)c2cccc(C(=O)N3CCN(CCCCCCC(=O)O)CC3)c2)[C@@H](C)CN1CC1CC1` [Example 115, 7-(4-{3-[(R)-((2S,5R)-4-Cyclopropylmethyl-2,5-dimethyl-piperazin-1-yl)-(3-hydroxy-phenyl)-methyl]-benzoyl}-piperazin-1-yl)-heptanoic acid]: the pKi in assay [2] is 7.66. This compound gave a pEC50 in assay [1] of 7.07.

In assay [1], `C[C@@H]1CN([C@@H](c2cccc(O)c2)c2cccc(C(=O)N3CCN(CCCCCC(=O)O)CC3)c2)[C@@H](C)CN1CC1CC1` [Example 101, 6-(4-{3-[(R)-((2S,5R)-4-Cyclopropylmethyl-2,5-dimethyl-piperazin-1-yl)-(3-hydroxy-phenyl)-methyl]-benzoyl}-piperazin-1-yl)-hexanoic acid] showed a pEC50 of 7.12.

Regarding `CCOC(=O)CCCCCCN1CCN(C(=O)c2cccc([C@H](c3cccc(O)c3)N3C[C@@H](C)N(CC4CC4)C[C@@H]3C)c2)CC1` [Example 114, 7-(4-{3-[(R)-((2S,5R)-4-Cyclopropylmethyl-2,5-dimethyl-piperazin-1-yl)-(3-hydroxy-phenyl)-methyl]-benzoyl}-piperazin-1-yl)-heptanoic acid ethyl ester], in assay [1], the pEC50 is 6.66. Compared with the last compound, the pEC50 is 0.46 log units lower.

The compound `C=CCN1C[C@H](C)N(C(c2cccc(O)c2)c2cccc(C(=O)N3CCCN(Cc4ccccc4C(=O)OC)CC3)c2)C[C@H]1C` (stereo partly shown) showed a pEC50 in assay [1] of 7.66.

Regarding `C[C@@H]1CN([C@@H](c2cccc(O)c2)c2cccc(C(=O)N3CCN(CC(=O)O)CC3)c2)[C@@H](C)CN1Cc1ccc(F)cc1` [Example 116, (4-{3-[(R)-[(2S,5R)-4-(4-Fluoro-benzyl)-2,5-dimethyl-piperazin-1-yl]-(3-hydroxy-phenyl)-methyl]-benzoyl}-piperazin-1-yl)-acetic acid], the pKi in assay [2] was 9.08. For the same compound, in assay [1], the pEC50 is 8.71.

Source of the values: patent US7683168B2, “Compositions of novel opioid compounds and method of use thereof” (priority 2005, dated 2010).
